From patent publication US20070105892A1, “Amidino compounds as cysteine protease inhibitors” (AXYS Pharmaceuticals, Inc., priority 2003, published 2007) come the findings set out here.

In general, melting point refers to the temperature of the solid-liquid transition. `CCc1noc(C(=O)[C@H](CC)NC(=O)[C@H](CC2(C)CCCC2)NC2=NS(=O)(=O)c3ccccc32)n1` [Example 1] returned a melting point of 202 to 204 °C.
